Tests used:
[1] = system: Arg-1 in CD11b+/Ly6G+ granulocytic MDSCs; assay: Arg-1 expression in granulocytic MDSCs of treated mice; assay type: in vivo, mouse; settings: spleens of injected MD4+/−/Eμ-TCL1+/+ mice
[2] = system: CLL cells in PBMCs; assay: CLL burden in B-I09-injected MD4+/−/Eμ-TCL1+/+ mice; assay type: in vivo, mouse; settings: 50 mg/kg intraperitoneally, days 1-5 and 8-12
Protocol: FIGS. 24A-24J illustrate the finding that targeting XBP-1s in CLL cells of MD4^+/−/Eμ-TCL1^+/+ mice leads to reduced production of sIgM, and decreased numbers and function of granulocytic MDSCs. (FIG. 24A) The levels of IgM in the sera of MD4^+/−/Eμ-TCL1^+/+ and XBP-1^KO/MD4^+/−/Eμ-TCL1^+/+ mice were determined by ELISA. (FIG. 24B) Blood cells collected from MD4^+/−/Eμ-TCL1^+/+ and XBP-1^KO/MD4^+/−/Eμ-TCL1^+/+ mice were treated with RBC lysis buffer, and stained with CD11c-BV421, CD11b-PE, Ly6C-Alexa 488 and Ly6G-Alexa 647. Gated CD11c−/CD11b+ populations were analyzed for Ly6C^intermediate/Ly6G+ granulocytic MDSCs and Ly6C+/Ly6G− monocytic MDSCs. […] Gated CD11b+/Ly6C^intermediate/Ly6G+ granulocytic MDSCs were analyzed for the expression of Arg-1. (FIG. 24F) Mean fluorescence intensity (MFI) of Arg-1 in gated CD11b+/Ly6C^intermediate/Ly6G+ granulocytic MDSCs from spleens of 5 MD4^+/−/Eμ-TCL1^+/+ and 5 XBP-1^KO/MD4^+/−/Eμ-TCL1^+/+ mice was plotted as mean±SEM. […] The ^3H-thymidine uptake was measured, and the percentages of proliferation were calculated by comparing to the positive control and plotted as mean±SEM. […] The percentage of CLL cells in PBMCs for each mouse was determined by flow cytofluorometry on day 6 and day 13, and compared with the CLL burden data of the mouse on day 0 (100%). […]

[3] = system: MEC2 cells; settings: cited from earlier work

SMILES: O=c1oc2c(C3OCCCO3)c(O)ccc2c2c1CNCC2 [Compound 4, 7-(1,3-dioxan-2-yl)-8-hydroxy-1,2,3,4-tetrahydro-5H-chromeno[3,4-c]pyridin-5-one]
- Arg-1 levels in granulocytic MDSCs versus DMSO-injected mice [1]: expressed decreased levels of Arg-1
- CLL burden in peripheral blood [2]: leukemic regression was observed
- sensitivity of MEC2 cells [3]: less sensitive
